As usually defined, the Ki is a dissociation constant, usually derived from enzyme kinetics or from competition with a known ligand.

The text below walks through data of US5773423A (priority 1994, dated 1998).

This experiment has as its target T1, A2 receptors from rat striatal membranes (Rattus norvegicus, UniProt P30543).
T1 construct: Rat cerebral cortical and striatal membranes were prepared; from tissue; host or cells: rat striatal membranes
The experiment in a line: Radioligand binding at A2 (A2a) receptors, displacement of [3H]CGS 21680 (or [3H]NECA with 50 nM CPA) from rat striatal membranes. The note with it: for Ki: rat striatal membranes, displacement of [3H]CGS 21680 (or [3H]NECA + 50 nM CPA), read-out: A2 affinity Ki. In general terms: In a radioligand displacement assay an active substance lowers the binding of a labelled ligand.

[1] abbreviates: read-out: A2 percent displacement.
The mark [2] stands for this setting: read-out: percent displacement of radioligand at A2.

Like-named read-outs stand apart in the source and are kept apart here.

T1 sequence (P30543 whole entry): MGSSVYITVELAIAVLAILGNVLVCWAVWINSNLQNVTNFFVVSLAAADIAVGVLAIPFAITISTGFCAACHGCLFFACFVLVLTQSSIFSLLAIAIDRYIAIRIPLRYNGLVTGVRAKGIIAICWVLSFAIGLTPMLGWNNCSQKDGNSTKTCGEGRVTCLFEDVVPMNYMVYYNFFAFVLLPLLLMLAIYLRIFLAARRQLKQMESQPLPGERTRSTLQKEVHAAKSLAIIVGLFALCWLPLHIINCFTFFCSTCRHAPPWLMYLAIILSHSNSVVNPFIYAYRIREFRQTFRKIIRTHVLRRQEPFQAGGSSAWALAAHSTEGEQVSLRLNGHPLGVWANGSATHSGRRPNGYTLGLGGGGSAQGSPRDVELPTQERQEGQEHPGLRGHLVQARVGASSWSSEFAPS

Consider `CCCCn1c(=O)c2c(ncn2[C@@H]2O[C@H](C(N)=O)[C@@H](O)[C@H]2O)n(CCCC)c1=O`, for which the “A2a affinity decrease vs 1,3-di-n-butylxanthine-7-β-D-ribofuranoside” value worked out at 2.8 fold.
Regarding `CCCCCC[C@H]([C@H](C)O)n1cnc2c(N)ncnc21` (relative stereo) [Compound 96, erythro-9-(2-hydroxy-3-nonyl)adenine, reference compound], the inhibition at 100 µM (at 100 μM, read-out: A2 percent displacement) worked out at 59.6 ± 2.8%.
For the molecule `O=C(NC1CC1)[C@H]1O[C@@H](n2cnc3c(NCc4ccccc4)ncnc32)[C@H](O)[C@@H]1O` [Compound 24, N^6-benzyladenosine-5'-N-cyclopropyluronamide], the Ki came out at 0.055 ± 0.006 µM.
On the same count and under the same terms, the result for `Nc1nccc2c1ncn2[C@@H]1O[C@H](CO)[C@@H](O)[C@H]1O` [Compound 32, 3-deazaadenosine, reference compound] reads 59.8 µM; that for `CCNC(=O)[C@H]1O[C@@H](n2cnc3c(N)[n+]([O-])cnc32)[C@H](O)[C@@H]1O` [Compound 35, adenosine-5'-N-ethyluronamide-N^1-oxide], 0.101 ± 0.019 µM; that for `CNC(=O)[C@H]1O[C@@H](n2cnc3c(NCc4cccc([N+](=O)[O-])c4)ncnc32)[C@H](O)[C@@H]1O` [Compound 43, N^6-(3-nitrobenzyl)-NMCA], 0.441 ± 0.045 µM.
On the same count and under the same terms, the result for `CNC(=O)[C@H]1O[C@@H](n2cnc3c(NCc4cccc(N)c4)ncnc32)[C@H](O)[C@@H]1O` [Compound 44, N^6-(3-aminobenzyl)adenosine-5'-N-methyluronamide] reads 0.794 ± 0.118 µM; that for `CNC(=O)[C@H]1O[C@@H](n2cnc3c(NCc4cccc(C(F)(F)F)c4)ncnc32)[C@H](O)[C@@H]1O` [Compound 47, N^6-(3-trifluoromethylbenzyl)adenosine-5'-N-methyluronamide], 0.574 ± 0.049 µM; that for `CNC(=O)[C@H]1O[C@@H](n2cnc3c(NCc4ccc(Cl)cc4)ncnc32)[C@H](O)[C@@H]1O` [Compound 48, N^6-(4-chlorobenzyl)-NMCA], 2.73 µM.
Consider `CNC(=O)[C@H]1O[C@@H](n2cnc3c(NCc4ccc(Br)cc4)ncnc32)[C@H](O)[C@@H]1O` [Compound 49, N^6-(4-bromobenzyl)-NMCA], for which the Ki amounted to 2.46 µM.
On to `CNC(=O)[C@H]1O[C@@H](n2cnc3c(NCc4ccc(N)c(I)c4)ncnc32)[C@H](O)[C@@H]1O` [Compound 51, N^6-(4-amino-3-iodobenzyl)adenosine-5'-N-methyluronamide], for which the “displacement of radioligand from A2a (in words)” value was “not A1 or A2a receptors” and the Ki is 0.316 ± 0.043 µM.
On to `CCNC(=O)[C@H]1O[C@@H](n2cnc3c(N[C@@H](C)c4ccccc4)ncnc32)[C@H](O)[C@@H]1O` [Compound 56, N^6 -(S-phenylethyl)-NECA], for which the inhibition constant (Ki) came out at 1.65 µM.
`Cn1c(=O)[nH]c(=O)c2[nH]cnc21` [Compound 100, 3-methylX, reference compound]: under setting [1], the inhibition at 100 µM was 38 ± 0.9%.
In the case of `CCCCn1c(=O)c2[nH]cnc2n(CCCC)c1=O` [Compound 109, 1,3-di-n-butyl-xanthine, reference compound], the Ki was found to be 2.93 µM.
As for `O=c1c2[nH]cnc2n(Cc2ccccc2)c(=O)n1Cc1ccccc1` [Compound 111, 1,3-dibenzylX, reference compound], for the setting “at 10 μM, read-out: A2 percent displacement”, the inhibition at 10 µM turned out to be 3.61 ± 0.94%.
`Cn1c(=O)c2ncn(C)c2n(C)c1=O` [Compound 113, 1,3,9-trimethylX, reference compound]: the inhibition at 100 µM under setting [1] is 14.4 ± 5.7%.
As for `Cn1c(=O)c2c(ncn2CCO)n(C)c1=O` [Compound 116, 7-β-hydroxyethylT, reference compound], the Ki was determined as 17.4 µM.
Consider `CCCCCCn1c(=O)c2c(ncn2[C@@H]2O[C@H](CO)[C@@H](O)[C@H]2O)n(CCCCCC)c1=O` [Example 64, 1,3-di-n-hexylxanthine-7-β-D-ribofuranoside], for which, under setting [2], the inhibition at 10 µM amounted to 7.8% and the inhibition at 100 µM was determined as 69 ± 2%.
`CCCCCn1c(=O)c2c(ncn2[C@@H]2O[C@H](C(=O)NC)[C@@H](O)[C@H]2O)n(CCCCC)c1=O` [Example 68, N-methyl 1,3-di-n-pentylxanthine-7-β-D-ribofuronamide]: the inhibition at 100 µM under setting [2] was 2%.
